# In patent US11135186B2, “Regulators of the endoplasmic reticulum proteostasis network” (The Scripps Research Institute, priority 2015, dated 2021):
# Experiments:
# [1] = tested on: BiP expression in ALMC-2 cells; assay: BiP qPCR in ALMC-2 cells; type: cell-based, human; settings: 10 μM, 6 h
# Procedure: Cells were treated as described at 37° C., washed with Dulbecco's phosphate-buffered saline (Gibco), and then RNA was extracted using the RNeasy Mini Kit (Qiagen). qPCR reactions were performed on cDNA prepared from 500 ng of total cellular RNA using the QuantiTect Reverse Transcription Kit (Qiagen). The FastStart Universal SYBR Green Master Mix (Roche), cDNA, and appropriate human primers^4 or mouse primers (BiP; […] (SEQ ID NO: 5) and […] (SEQ ID NO: 6) purchased from Integrated DNA Technologies were used for amplifications (45 cycles of 1 min at 95° C., 10 s at 95° C., 30 sec at 60° C.) in an ABI 7900HT Fast Real Time PCR machine. Primer integrity was assessed by a thermal melt to confirm homogeneity and the absence of primer dimers. Transcripts were normalized to the housekeeping gene Rplp2 and all measurements were performed in triplicate. Data were analyzed using the RQ Manager and DataAssist 2.0 softwares (ABI).
# ^FTTTR^A25T = assay: [35S] metabolic labeling, secretion of flag-tagged TTR^A25T from HepG2^ATF6 cells; type: cell-based; settings: 15 h pretreatment, 4 h chase; for degradation of ^FTTTR^A25T / reduction of ^FTTTR^A25T secretion: 10 μM
# Procedure: (§1) HepG2 cells or HEK293T cells plated on poly-D-lysine coated plates were metabolically labeled in DMEM-Cys/-Met (CellGro) supplemented with glutamine, penicillin/streptomycin, dialyzed fetal bovine serum, and EasyTag EXPRESS^35S Protein Labeling Mix (Perkin Elmer) for 30 min. Cells were washed twice with complete media and incubated in prewarmed DMEM for the indicated times. Media or lysates were harvested at the indicated times. Lysates were prepared in RIPA buffer with fresh protease inhibitor cocktail (Roche). FLAG tagged TTR variants or ALLC were immunopurified using M1 anti-FLAG agarose beads (Sigma-Aldrich) and washed three times with RIPA buffer. The immunoisolates were then eluted by boiling in Laemmli buffer and separated on SDS-PAGE. For total secreted media, 15 uL aliquots from media incubated for 4 hrs on pulsed cells were run on a SDS-PAGE. The gels were then dried, exposed to phosphorimager plates (GE Healthcare), and imaged with a Typhoon imager. Band intensities were quantified by densitometry in ImageQuant. Fraction secreted was calculated using the equation: fraction secreted=[extracellular [^35S]-LC signal at t=t/(extracellular [^35S]-LC signal at t=0+intracellular [^35S]-LC signal at t=0)]. Fraction remaining was calculated using the equation: [(extracellular [^35S]-LC signal at t=t+intracellular [^35S]-LC signal at t=t)/(extracellular [^35S]-LC signal at t=0+ intracellular [^35S]-LC signal at t=0)].
# ALMC-2 cells = assay: ALMC-2 cell viability (CellTiter-Glo); type: cell-based, human; settings: 10 μM
# Procedure: HepG2 cells were plated at 5,000 cells/well in a translucent, flat-bottomed 96 well plate, and treated for 48 hr with vehicle, 10 μM Tg or 10 μM ER proteostasis regulator. ALMC-2 or KAS-6/1 cells were plated at 33,000 cells/well in 96-well plates then treated with proteostasis regulators for 16 h as described. Cell metabolic activity was measured using the CellTiter-Glo assay (Promega), which reports on intracellular ATP concentration. CellTiter-Glo reagent was added to cell culture media at a 1:1 ratio and incubated for 2 minutes on an orbital shaker to induce cell lysis. The plate was then incubated at room temperature for 10 minutes to stabilize the luminescent signal and read on a Tecan F200 Pro microplate reader.
# [2] = tested on: ERSE-FLuc reporter (ATF6 arm of the UPR); assay: ERSE-FLuc reporter, 1536-well confirmation screen in HEK293T-Rex cells; type: cell-based; settings: % Tg (500 nM) activation, triplicate confirmation screen at 6.8 μM, 18 h
# Text: We employed a transcriptional reporter that quantifies activation of the ATF6 arm of the UPR in HEK293T-Rex cells. This reporter contains a fragment of the UPR-inducible BiP promoter, including three ER stress-responsive elements (ERSEs), driving expression of firefly luciferase (ERSE-FLuc; FIG. 1a)^34. We previously employed this reporter for a small-scale screen using the 1280 member compound Library of Pharmacologic Active Compounds (LoPAC) to find small molecules that activate the UPR^8. […] Optimization and miniaturization of this assay to 1536-well format was performed at the Scripps Research Institute Molecule Screening Center (SRIMSC).
# HEK293T-Rex cells incorporating either the ERSE-FLuc or XBP1s-RLuc reporters were collected by trypsinization and resuspended at a density of 500,000 cells per mL. The assay was started by dispensing 5 μL of cell suspension into each well of white, solid-bottom 1536-well plates using a flying reagent dispenser (FRD) and placed into an online incubator 3 h. Cells were then treated with 34 nL/well of either test compounds to give final concentrations of 6.8 μM, DMSO (Low control, final concentration 0.68%, 0% activation) or […] of Delta-7 thapsigargin (High control, final concentration 500 nM, 100% activation). Plates were incubated for 18 h at 37° C., removed from the incubator and equilibrated to room temperature for 10 min. Luciferase activity was detected by addition of 5 μL of ONE-Glo reagent (Promega) to each well. After a 10 min incubation time, light emission was measured with the ViewLux reader (PerkinElmer). The percent activation of each test compound was calculated as follows: % Activation=100*(Test Compound−Median Low Control)/(Median High Control ˜Median Low Control).
# ATF6 = assay: Immunoblot of the 50 kDa ATF6 fragment; type: cell-based; settings: immunoblotting
# Procedure: For immunoblotting, cells were lysed in 50 mM Tris buffer, pH 7.5 containing 0.1% TritonX (Fisher Scientific) and supplemented with protease inhibitor cocktail (Roche). For immunoblots of endogenous ATF6, cells were washed in PBS containing protease inhibitor cocktail and 10 μM MG-132 and subsequently lysated in 1× Laemmli buffer, supplemented in the same way, by repeating cycles of boiling and vortexing. Protein lysate concentrations were normalized by Bradford assays (Bio-Rad). Lysates or media were boiled for 10 min in Laemmli buffer+100 mM DTT before loading onto SDS-PAGE gel. Proteins were transferred from gel slabs to nitrocellulose, and the Odyssey Infrared Imaging System (Li-Cor Biosciences) was used to detect proteins of interest.
# ^FTTTR^WT = assay: [35S] metabolic labeling, secretion of flag-tagged TTR^WT from HepG2^ATF6 cells; type: cell-based; settings: 15 h pretreatment, 10 μM compound or 1 μM Tg, 4 h chase
# Procedure: as §1
Compound,expression of the ATF6 target gene BiP in ALMC-2 cells [1],^FTTTR^A25T secretion (in words) (^FTTTR^A25T; 10 μM compound or 1 μM Tg),degradation of ^FTTTR^A25T (^FTTTR^A25T),reduction in cell viability (ALMC-2 cells) [%],% ERSE-FLuc activation [2] [%],accumulation of the 50 kDa ATF6 fragment (S1P/S2P proteolysis) (ATF6),^FTTTR^WT secretion (in words) (^FTTTR^WT),reduction of ^FTTTR^A25T secretion (^FTTTR^A25T) [%],cell viability (in words) (ALMC-2 cells)
Cc1ccc(O)c(N/C=C/C(=O)c2ccc(F)cc2)c1 [Compound 132],induced,did not significantly influence,did not significantly influence,45,140.1 ± 17.4,increased accumulation,did not significantly influence,,
Cc1ccc(O)c(NC(=O)CCc2ccccc2)c1 [Compound 147],induced,,increased degradation,,63.2 ± 0.6,,did not significantly influence,45,do not significantly affect
O=[N+]([O-])c1ccc(N/N=C/c2ccccc2O)cc1 [Compound 263],does not significantly induce,,increased degradation,,20.7 ± 2.3,increased accumulation,did not significantly influence,45,
